Reference: patent US8846929B2, “Substituted-quinoxaline-type piperidine compounds and the uses thereof” (priority 2007, dated 2014)

What follows are compounds tested against human opioid receptor-like (ORL-1) (Homo sapiens (Human), UniProt P41146) (assay: In vitro ORL-1 receptor [35S]GTPγS functional assay).
Chain of human opioid receptor-like (ORL-1) (P41146 whole entry): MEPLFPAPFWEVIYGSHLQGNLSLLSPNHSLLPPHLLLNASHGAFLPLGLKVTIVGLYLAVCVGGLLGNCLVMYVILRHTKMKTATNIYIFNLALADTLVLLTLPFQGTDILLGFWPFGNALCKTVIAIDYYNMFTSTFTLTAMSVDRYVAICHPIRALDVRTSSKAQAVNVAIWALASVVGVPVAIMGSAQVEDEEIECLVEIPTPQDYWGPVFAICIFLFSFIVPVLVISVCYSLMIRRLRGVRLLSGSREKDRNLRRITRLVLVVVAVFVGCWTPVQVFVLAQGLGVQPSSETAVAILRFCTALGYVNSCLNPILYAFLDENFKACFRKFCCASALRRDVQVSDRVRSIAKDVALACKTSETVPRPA
Type: biochemical
Compound `CN(C)c1nc2ccccc2n(C2CCN(C3CCCCCCC3)CC2)c1=O` [compound 2, 1-(1-cyclooctylpiperidin-4-yl)-3-(dimethylamino)quinoxalin-2(1H)-one] has an EC50 of 580 ± 92 nM.
`O=C(O)CC(NC(=O)c1nc2ccccc2n([C@H]2C[C@H]3CC[C@@H](C2)N3C2CCCCCCC2)c1=O)C(=O)O` (stereo partly drawn) [compound 310, 2-(4-((endo)-8-cyclooctyl-8-azabicyclo[3.2.1]octan-3-yl)-3-oxo-3,4-dihydroquinoxaline-2-carboxamido)succinic acid] showed an EC50 of 419 ± 62 nM.
Compound `CS(=O)(=O)NC1CCN(c2nc3ccccc3n(C3CCN(C4CCCCCCC4)CC3)c2=O)CC1` [compound 30] has an EC50 of 699 ± 19 nM.
In the case of `CN(CC(=O)O)C(=O)c1nc2ccccc2n([C@H]2C[C@H]3CC[C@@H](C2)N3C2CCCCCCC2)c1=O` [compound 307, 2-(4-((endo)-8-cyclooctyl-8-azabicyclo[3.2.1]octan-3-yl)-N-methyl-3-oxo-3,4-dihydroquinoxaline-2-carboxamido)acetic acid], the EC50 is reported as 400 ± 72 nM.
In the case of `CCOC(=O)CNc1nc2ccccc2n(C2CCN(C3CCCCCCC3)CC2)c1=O` [compound 57], the EC50 is reported as 486 ± 34 nM.
`CC(=O)N1CC2CN(c3nc4ccccc4n(C4CCN(C5CCCCCCC5)CC4)c3=O)CC2C1` (centres unmarked) [compound 13, 3-(5-acetylhexahydropyrrolo[3,4-c]pyrrol-2(1H)-yl)-1-(1-cyclooctylpiperidin-4-yl)quinoxalin-2(1H)-one] was tested, and the EC50 was 1690 ± 166 nM.
For `CCOC(=O)c1nc2ccccc2n(C2CCN(C3CCCCCCC3)CC2)c1=O` [compound 70, ethyl 4-(1-cyclooctylpiperidin-4-yl)-3-oxo-3,4-dihydroquinoxaline-2-carboxylate], the EC50 was 788 ± 44 nM.
In the case of `C=CCNc1nc2ccccc2n(C2CCN(C3CCCCCCC3)CC2)c1=O` [compound 24, 3-(allylamino)-1-(1-cyclooctylpiperidin-4-yl)quinoxalin-2(1H)-one], the EC50 is reported as 611 ± 71 nM.
Work on `N#Cc1nc2ccccc2n(C2CCN(C3CCCCCCC3)CC2)c1=O` [compound 88] yielded an EC50 of 201 ± 27 nM.
For `N=C(N)NCCNc1nc2ccccc2n(C2CCN(C3CCCCCCC3)CC2)c1=O` [compound 26], the EC50 was 109 ± 5.9 nM.
Work on `CC(C)(C)OC(=O)NCCNc1nc2ccccc2n(C2CCN(C3CCCCCCC3)CC2)c1=O` [compound 7, tert-butyl 2-(4-(1-cyclooctylpiperidin-4-yl)-3-oxo-3,4-dihydroquinoxalin-2-ylamino)ethylcarbamate] yielded an EC50 of 979 ± 40 nM.
`CONC(=O)c1nc2ccccc2n(C2CCN(C3CCCCCCC3)CC2)c1=O` [compound 83] gave an EC50 of 558 ± 77 nM.
In the case of `O=C(O)c1nc2ccccc2n([C@H]2C[C@H]3CCC[C@@H](C2)N3C2C3CC4CC(C3)CC2C4)c1=O` (some centres unmarked) [compound 363], the EC50 is reported as 4090 ± 1160 nM.
For `CN(CC(O)CO)c1nc2ccccc2n(C2CCN(C3CCCCCCC3)CC2)c1=O` (centres unmarked) [compound 65], the EC50 was 348 ± 22 nM.
`O=C(O)c1nc2ccccc2n([C@H]2C[C@H]3CCC[C@@H](C2)N3CCC2CCCCC2)c1=O` [compound 372] gave an EC50 of 214 ± 57 nM.
`NC(=O)CNc1nc2ccccc2n(C2CCN(C34CC5CC(CC(C5)C3)C4)CC2)c1=O` [compound 64] gave an EC50 of 457 ± 90 nM.
Compound `CC1(N2[C@@H]3CCC[C@H]2C[C@@H](n2c(=O)c(C(=O)O)nc4ccccc42)C3)CCCCCCC1` [compound 335] has an EC50 of 174 ± 10 nM.
For `COC(=O)c1ccc2c(c1)CN(c1nc3ccccc3n(C3CCN(C4CCCCCCC4)CC3)c1=O)CC2` [compound 44], the EC50 was 392 ± 6.6 nM.
`CSCCC(NC(=O)c1nc2ccccc2n([C@H]2C[C@H]3CC[C@@H](C2)N3C2CCCCCCC2)c1=O)C(=O)O` (stereo partly drawn) [compound 309, 2-(4-((endo)-8-cyclooctyl-8-azabicyclo[3.2.1]octan-3-yl)-3-oxo-3,4-dihydroquinoxaline-2-carboxamido)-4-(methylthio)butanoic acid] showed an EC50 of 659 ± 155 nM.
`O=c1c(NC[C@@H](O)CO)nc2ccccc2n1C1CCN(C23CC4CC(CC(C4)C2)C3)CC1` [compound 89] was tested, and the EC50 was 806 ± 85 nM.
`O=c1c(N2Cc3ccccc3C2)nc2ccccc2n1C1CCN(C2CCCCCCC2)CC1` [compound 19, 1-(1-cyclooctylpiperidin-4-yl)-3-(isoindolin-2-yl)quinoxalin-2(1H)-one] showed an EC50 of 286 ± 30 nM.
`O=c1c(N2CC[C@@H](O)C2)nc2ccccc2n1C1CCN(C2CCCCCCC2)CC1` [compound 92] gave an EC50 of 510 ± 100 nM.
For `NCC(O)CNc1nc2ccccc2n(C2CCN(C3CCCCCCC3)CC2)c1=O` (centres unmarked) [compound 58], the EC50 was 151 ± 7.9 nM.
For `O=C(O)c1nc2ccccc2n([C@H]2C[C@H]3CCCC[C@@H](C2)N3C2/C=C\CCCCC2)c1=O` (some centres unmarked) [compound 359], the EC50 was 134 ± 2.7 nM.
With `CC(C)CCC(C)N1[C@@H]2CCC[C@H]1C[C@@H](n1c(=O)c(C(=O)O)nc3ccccc31)C2` (some centres unmarked) [compound 303] the EC50 was 298 ± 23 nM.
`CNC(=O)c1nc2ccccc2n(C2CCN(C3CCCCCCC3)CC2)c1=O` [compound 78] gave an EC50 of 363 ± 20 nM.
Work on `NC(=O)CNc1nc2ccccc2n(C2CCN(C3CCCCCCC3)CC2)c1=O` [compound 32] yielded an EC50 of 406 ± 42 nM.
In the case of `O=C(O)c1nc2ccccc2n([C@H]2C[C@H]3CC[C@@H](C2)N3C23CC4CC(CC2C4)C3)c1=O` [compound 320], the EC50 is reported as 104 ± 7.8 nM.
With `NC(=O)CCNc1nc2ccccc2n(C2CCN(C3CCCCCCC3)CC2)c1=O` [compound 47] the EC50 was 419 ± 12.7 nM.
`O=C(O)CN1CCN(c2nc3ccccc3n([C@H]3C[C@H]4CC[C@@H](C3)N4C3CCCCCCC3)c2=O)CC1` [compound 337, 2-(4-(4-((endo)-8-cyclooctyl-8-azabicyclo[3.2.1]octan-3-yl)-3-oxo-3,4-dihydroquinoxalin-2-yl)piperazin-1-yl)acetic acid] gave an EC50 of 438 ± 15 nM.
`O=C(O)c1ccc(CNC(=O)c2nc3ccccc3n([C@H]3C[C@H]4CC[C@@H](C3)N4C3CCCCCCC3)c2=O)nc1` [compound 318, 6-((4-((endo)-8-cyclooctyl-8-azabicyclo[3.2.1]octan-3-yl)-3-oxo-3 ,4-dihydroquinoxaline-2-carboxamido)methyl)nicotinic acid] showed an EC50 of 236 ± 13 nM.
For `CC(=O)Nc1nc2ccccc2n(C2CCN(C3CCCCCCC3)CC2)c1=O` [compound 17, N-(4-(1-cyclooctylpiperidin-4-yl)-3-oxo-3,4-dihydroquinoxalin-2-yl)acetamide], the EC50 was 7870 ± 2230 nM.
With `CC(C)(C)OC(=O)NC1CCN(c2nc3ccccc3n(C3CCN(C4CCCCCCC4)CC3)c2=O)CC1` [compound 21] the EC50 was 1470 ± 50 nM.
`O=C(O)c1nc2ccc(F)cc2n([C@H]2C[C@H]3CC[C@@H](C2)N3C2CCCCCCC2)c1=O` [compound 133] showed an EC50 of 473 ± 27 nM.
`COC(=O)C1CCN(c2nc3ccccc3n(C3CCN(C4CCCCCCC4)CC3)c2=O)CC1` [compound 16] gave an EC50 of 3750 ± 93 nM.
With `CC(C)(C)OC(=O)N1CCN(c2nc3ccccc3n(C3CCN(C4CCCCCCC4)CC3)c2=O)CC1` [compound 8, tert-butyl 4-(4-(1-cyclooctylpiperidin-4-yl)-3-oxo-3,4-dihydroquinoxalin-2-yl)piperazine-1-carboxylate] the EC50 was 4560 ± 1120 nM.
With `CC(C)(C)OC(=O)Nc1nc2ccccc2n(C2CCN(C3CCCCCCC3)CC2)c1=O` [compound 14, tert-butyl 4-(1-cyclooctylpiperidin-4-yl)-3-oxo-3,4-dihydroquinoxalin-2-ylcarbamate] the EC50 was 4650 ± 238 nM.
Compound `NC(=O)[C@@H]1CCCN1c1nc2ccccc2n(C2CCN(C3CCCCCCC3)CC2)c1=O` [compound 42] has an EC50 of 543 ± 27 nM.
With `O=C(NOCc1ccccc1)c1nc2ccccc2n(C2CCN(C3CCCCCCC3)CC2)c1=O` [compound 84] the EC50 was 182 ± 22 nM.
`O=c1c(N2CC[C@H](O)C2)nc2ccccc2n1C1CCN(C2CCCCCCC2)CC1` [compound 68] showed an EC50 of 478 ± 6.4 nM.
Compound `COC(=O)C(CO)Nc1nc2ccccc2n(C2CCN(C3CCCCCCC3)CC2)c1=O` (centres unmarked) [compound 46] has an EC50 of 399 ± 56 nM.
With `COC(=O)[C@@H]1C[C@@H](O)CN1c1nc2ccccc2n(C2CCN(C3CCCCCCC3)CC2)c1=O` [compound 28] the EC50 was 1880 ± 285 nM.
With `CC(=O)N1CCC(Nc2nc3ccccc3n(C3CCN(C4CCCCCCC4)CC3)c2=O)CC1` [compound 49] the EC50 was 808 ± 110 nM.
`O=C1CCN(c2nc3ccccc3n(C3CCN(C4CCCCCCC4)CC3)c2=O)N1` [compound 119, 1-(1-cyclooctylpiperidin-4-yl)-3-(3-oxopyrazolidin-1-yl)quinoxalin-2(1H)-one] showed an EC50 of 3660 ± 171 nM.
Work on `NC(=O)[C@H](CO)Nc1nc2ccccc2n(C2CCN(C3CCCCCCC3)CC2)c1=O` [compound 33] yielded an EC50 of 211 ± 21 nM.
In the case of `CONC(=O)c1nc2ccccc2n([C@H]2C[C@H]3CC[C@@H](C2)N3C2CCCCCCC2)c1=O` [compound 121], the EC50 is reported as 265 ± 27 nM.
Work on `CC(C)CC(C)N1[C@@H]2CCC[C@H]1C[C@@H](n1c(=O)c(C(=O)O)nc3ccccc31)C2` (some centres unmarked) [compound 304] yielded an EC50 of 150 ± 6 nM.
Compound `CC(NC(=O)c1nc2ccccc2n([C@H]2C[C@H]3CC[C@@H](C2)N3C2CCCCCCC2)c1=O)C(=O)O` (stereo partly drawn) [compound 312, 2-(4-((endo)-8-cyclooctyl-8-azabicyclo[3.2.1]octan-3-yl)-3-oxo-3,4-dihydroquinoxaline-2-carboxamido)propanoic acid] has an EC50 of 138 ± 8.1 nM.
For `O=C(O)C1CCCN1C(=O)c1nc2ccccc2n([C@H]2C[C@H]3CC[C@@H](C2)N3C2CCCCCCC2)c1=O` (stereo partly drawn) [compound 306, 1-(4-((endo)-8-cyclooctyl-8-azabicyclo[3.2.1]octan-3-yl)-3-oxo-3,4-dihydroquinoxaline-2-carbonyl)pyrrolidine-2-carboxylic acid], the EC50 was 548 ± 57 nM.
`NC(=O)C1CCN(c2nc3ccccc3n(C3CCN(C4CCCCCCC4)CC3)c2=O)CC1` [compound 29] showed an EC50 of 468 ± 81 nM.
`O=C(Nc1ccc(=O)[nH]c1)c1nc2ccccc2n(C2CCN(C3CCCCCCC3)CC2)c1=O` [compound 82] was tested, and the EC50 was 181 ± 9.8 nM.
In the case of `O=c1c(NC[C@H](O)CO)nc2ccccc2n1C1CCN(C2CCCCCCC2)CC1` [compound 55], the EC50 is reported as 421 ± 50 nM.
Work on `NC(=O)C1CCCN(c2nc3ccccc3n(C3CCN(C4CCCCCCC4)CC3)c2=O)C1` (centres unmarked) [compound 60] yielded an EC50 of 2140 ± 661 nM.
With `O=C1CN(c2nc3ccccc3n(C3CCN(C4CCCCCCC4)CC3)c2=O)CCN1` [compound 18, 1-(1-cyclooctylpiperidin-4-yl)-3-(3-oxopiperazin-1-yl)quinoxalin-2(1H)-one] the EC50 was 1280 ± 84 nM.
In the case of `O=C(O)CN(CCNC(=O)c1nc2ccccc2n([C@H]2C[C@H]3CC[C@@H](C2)N3C23CC4CC(CC(C4)C2)C3)c1=O)CC(=O)O` [compound 325], the EC50 is reported as 109 ± 14 nM.
With `O=c1c(NCC(O)CO)nc2ccccc2n1C1CCN(C2CCCCCCC2)CC1` (centres unmarked) [compound 25, 1-(1-cyclooctylpiperidin-4-yl)-3-(2,3-dihydroxypropylamino)quinoxalin-2(1H)-one] the EC50 was 781 ± 26 nM.
